Measured values from patent EP0871764B1, “SCREENING METHOD” (Novartis AG, priority 1995, dated 1997).

These molecules were tested against T1, RAC-PK PH domain (Homo sapiens, UniProt P31749) (assay: Quenching of the intrinsic Trp fluorescence of the PH domain by phospholipids and inositol phosphates). Conditions: calculated from reduction of 345nm fluorescence (excited at 290nm); 10mM Hepes/NaOH, pH 7.0, 10mM MgCl2, 25°C; read-out: Dissociation Constant.
T1 construct: pGEX-PH131 contains an in-frame fusion of amino acids 1-131 of human RAC-PKα with GST; GST (N, cleaved yes); made in house; host or cells: E. coli (JM109)
T1 sequence (P31749 1-131): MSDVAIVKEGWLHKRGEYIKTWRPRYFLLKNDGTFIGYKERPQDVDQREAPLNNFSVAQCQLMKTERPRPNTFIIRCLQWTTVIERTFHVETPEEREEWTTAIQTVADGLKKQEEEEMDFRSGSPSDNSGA
Assay type: binding
Method: Purified PH domain obtained according to Example 1 is incubated at a concentration of 1.4µM in 10mM Hepes/NaOH, pH 7.0, 10mM MgCl2, at 25°C.
Under the same conditions as Example 3, the RAC-PK PH domain is incubated in the presence of varying concentrations of phospholipids and inositol phosphates and fluorescence is measured. […]
Work on `O=P(O)(O)OC1C(O)C(O)C(O)C(O)C1O` (centres unmarked) [Ins (1) monophosphate] yielded a Kd of 7 µM.
`O=P(O)(O)OC1C(O)C(O)C(OP(=O)(O)O)C(O)C1O` (centres unmarked) [Ins (1,4) bisphosphate] showed a Kd of 0.9 µM.
Work on `O=P(O)(O)OC1C(O)C(O)C(OP(=O)(O)O)C(OP(=O)(O)O)C1O` (centres unmarked) [Ins (1,4,5) trisphosphate] yielded a Kd of 1.2 µM.
In the case of `O=P(O)(O)OC1C(O)C(O)C(O)C(O)C1O` (centres unmarked) [Ins (2) monophosphate], the Kd is reported as 8.4 µM.
In the case of Ptd-Ins (4,5)bisphosphate, the Kd is reported as 0.4 µM.
